As a reminder, the Ki is the equilibrium dissociation constant of an inhibitor or competing ligand from its target.

The values that follow come from ChEMBL document CHEMBL1800064, “Biaryl ethers as potent allosteric inhibitors of reverse transcriptase and its key mutant viruses: aryl substituted pyrazole as a surrogate for the pyrazolopyridine motif” (Bioorg Med Chem Lett, 2010).

The target of test [1] is Human immunodeficiency virus type 1 reverse transcriptase (Human immunodeficiency virus 1, UniProt Q72547, K103N). Briefly: Inhibition of HIV1 reverse transcriptase K103N mutant by SPA assay.
For test [2], the system named is Human immunodeficiency virus 1. The test is described as follows: Antiviral activity against HIV1 R8 harboring reverse transcriptase infected in human MT4 cells assessed as inhibition of viral spread in presence of 50% normal human serum. It is filed as functional. The settings on record: Human immunodeficiency virus 1, R8, MT4; read-out: CIC95.
Test [3] deals with Human immunodeficiency virus type 1 reverse transcriptase (Human immunodeficiency virus 1, UniProt Q72547). The test is described as follows: Inhibition of wild type HIV1 reverse transcriptase by SPA assay.
Test [4] has as its target T1, Human immunodeficiency virus type 1 reverse transcriptase (Human immunodeficiency virus 1, UniProt Q72547, Y181C). The test is described as follows: Inhibition of HIV1 reverse transcriptase Y181C mutant by SPA assay.
The subject of test [5] is Human immunodeficiency virus 1. The test is described as follows: Antiviral activity against HIV1 R8 harboring wild type reverse transcriptase infected in human MT4 cells assessed as inhibition of viral spread in presence of 10% fetal bovine serum. It is filed as functional. The following applies: Human immunodeficiency virus 1, R8, MT4; read-out: CIC95.
In test [6] the test system is Human immunodeficiency virus 1. The test is described as follows: Antiviral activity against HIV1 R8 harboring reverse transcriptase K103N mutant infected in human MT4 cells assessed as inhibition of viral spread in presence of 10% fetal bovine serum. The following applies: Human immunodeficiency virus 1, R8, MT4; read-out: CIC95. It is filed as functional.
For test [7], the target named is T1, Human immunodeficiency virus type 1 reverse transcriptase. The test is described as follows: Inhibition of HIV1 reverse transcriptase Y181C mutant by electrochemiluminescent assay.
For test [8], the system named is Human immunodeficiency virus 1. The test is described as follows: Antiviral activity against HIV1 R8 harboring reverse transcriptase Y181C mutant infected in human MT4 cells assessed as inhibition of viral spread in presence of 10% fetal bovine serum. The format is functional. The settings on record: Human immunodeficiency virus 1, R8, MT4; read-out: CIC95.
Test [9] deals with Human immunodeficiency virus 1. The test is described as follows: Antiviral activity against HIV1 R8 harboring reverse transcriptase K103N/Y181C double mutant infected in human MT4 cells assessed as concentration required to inhibit >95% viral spread in presence of 10% FBS. The format is functional. The settings on record: Human immunodeficiency virus 1, R8, MT4; read-out: CIC95.

As for `N#Cc1cc(Cl)cc(Oc2cc(OCc3n[nH]cc3-c3ccccc3)ccc2Cl)c1`, the inhibition constant Ki is greater than 0.34 µM in test [1], 0.46 µM in test [3] and greater than 3 µM in [4]. Further, the IC95 in test [2] was greater than 8.3 µM; in [5] it was 8.3 µM.

Regarding `N#Cc1cc(Cl)cc(Oc2cc(OCc3n[nH]c(-c4ccc(-c5nnn[nH]5)cc4)c3Cl)ccc2Cl)c1`, the IC95 in test [6] is 8.33 µM; in test [2], greater than 8.33 µM; in [5], 2.78 µM. Also, the Ki in test [1] was found to be 0.0007 µM; in [7] it was 0.0006 µM; in test [3], 0.0003 µM.

For the compound `N#Cc1cc(Cl)cc(Oc2cc(OCc3nnc(-c4ccc(Cl)cc4)o3)ccc2Cl)c1`, the Ki in test [1] was 0.011 µM; in test [3], 0.0049 µM. Also, the IC95 in [2] was determined as 0.83 µM; in test [5], 2.78 µM.

Take `N#Cc1cc(Cl)cc(Oc2cc(OCc3cc(-c4ccccc4)[nH]n3)ccc2Cl)c1`: the IC95 in [6] was determined as 0.924 µM; in test [2] it was 0.924 µM; in [8], 0.833 µM; in [5] it was 0.222 µM. Besides, the inhibition constant Ki in test [1] worked out at 0.0024 µM; in test [3] it was 0.0009 µM; in test [4], 0.0125 µM.

On to `Cn1cc(-c2cc(COc3ccc(Cl)c(Oc4cc(Cl)cc(C#N)c4)c3)n[nH]2)cn1`, for which the IC95 is 0.102 µM in [6], 0.307 µM in test [2], 0.278 µM in test [8] and 0.032 µM in [5]. Further, the values for the Ki in test [1], in [7] and in [3] were 0.0042 µM, 0.003 µM and 0.0007 µM, respectively.

In the case of `COc1ccc(-c2nnc(COc3ccc(Cl)c(Oc4cc(Cl)cc(C#N)c4)c3)o2)cc1`, the results for the inhibition constant Ki in test [1] and in test [3] were 0.0093 µM and 0.0052 µM, respectively. The IC95 in test [2] and in test [5] was 0.926 µM in each case.

Regarding `N#Cc1cc(Cl)cc(Oc2cc(OCc3n[nH]c(-c4ccccn4)c3Cl)ccc2Cl)c1`, the IC95 in test [6] turned out to be 2.77 µM; in [2] it was 0.922 µM; in test [5] it was 0.922 µM. The Ki in [1] amounted to 0.0005 µM; in [7] it was 0.0006 µM; in test [3] it was 0.0004 µM.

With `N#Cc1cc(Cl)cc(Oc2cc(OCc3nc(-c4ccccn4)no3)ccc2Cl)c1`, the inhibition constant (Ki) in test [1] is 0.069 µM; in test [3] it was 0.029 µM. In addition, the IC95 in test [2] and in test [5] was greater than 8.3 µM in each case.

As for `N#Cc1cc(Cl)cc(Oc2cc(OCc3n[nH]c(-c4ccncc4)c3Cl)ccc2Cl)c1`, the IC95 amounted to 0.102 µM in test [6], 0.307 µM in test [2], 0.278 µM in test [8] and 0.097 µM in test [5]. Moreover, the inhibition constant Ki in test [1] is 0.0007 µM; in test [7], 0.0005 µM; in test [3] it was 0.0005 µM.

`N#Cc1cc(Cl)cc(Oc2cc(OCc3cc(-c4ccco4)[nH]n3)ccc2Cl)c1`: the IC95 in test [6] was 0.922 µM; in test [2] it was 0.922 µM; in test [8], 0.833 µM; in test [5], 0.097 µM. Moreover, the inhibition constant (Ki) in test [1] is 0.01 µM; in test [3], 0.0003 µM; in [4] it was 0.0015 µM.

On to `N#Cc1cc(Cl)cc(Oc2cc(OCc3cc(-c4ccccc4)on3)ccc2Cl)c1`, for which the IC95 in test [6] is 2.78 µM; in test [2], 8.33 µM; in [8], 0.833 µM; in test [5] it was 0.926 µM. In addition, the Ki in test [1] came out at 0.0055 µM; in test [3], 0.0026 µM; in test [4] it was 0.0204 µM.

On to `N#Cc1cc(Cl)cc(Oc2cc(OCc3cc(-c4cccs4)[nH]n3)ccc2Cl)c1`, for which the IC95 in [6] amounted to 0.922 µM; in test [2], 0.307 µM; in test [8] it was 0.178 µM; in test [5], 0.168 µM. In addition, the inhibition constant Ki was found to be 0.0046 µM in test [1], 0.0016 µM in test [3] and 0.0495 µM in [4].

With `N#Cc1cc(Cl)cc(Oc2cc(OCc3ncc(-c4ccc(Cl)cc4)o3)ccc2Cl)c1`, the inhibitory constant (Ki) in test [1] is 0.0044 µM; in test [3] it was 0.0021 µM. For the same compound, the IC95 was determined as 0.277 µM in test [2] and 0.926 µM in test [5].

Turning to `N#Cc1cc(Cl)cc(Oc2cc(OCc3cn(-c4ccccc4)nn3)ccc2Cl)c1`, the Ki in test [1] is 0.946 µM; in test [3] it was 0.068 µM.

`N#Cc1cc(Cl)cc(Oc2cc(OCc3cc(-c4cccnc4)[nH]n3)ccc2Cl)c1`: the IC95 in test [6] is 0.307 µM; in test [2] it was 0.307 µM; in test [8] it was 0.278 µM; in test [5] it was 0.032 µM. The Ki in test [1] came out at 0.0052 µM; in test [3], 0.0011 µM; in test [4], 0.0067 µM.

Turning to `N#Cc1ccc(-c2cc(COc3ccc(Cl)c(Oc4cc(Cl)cc(C#N)c4)c3)n[nH]2)cc1`, the IC95 in [6] came to 0.307 µM; in test [2] it was 0.922 µM; in [5], 0.034 µM. Besides, the Ki in test [1] is 0.0036 µM; in test [7], 0.012 µM; in [3], 0.0007 µM.

Take `N#Cc1cc(Cl)cc(Oc2cc(OCc3cc(-c4ccccn4)[nH]n3)ccc2Cl)c1`: the IC95 is 0.307 µM in [6], 0.307 µM in test [2], greater than 0.833 µM in [8] and 0.097 µM in test [5]. Besides, the Ki is 0.0096 µM in test [1], 0.0032 µM in test [3] and 0.0089 µM in test [4].

Take `N#Cc1cc(Cl)cc(Oc2cc(OCc3cc(-c4ccccc4)no3)ccc2Cl)c1`: the IC95 in test [6] is greater than 8.33 µM; in [2], greater than 8.3 µM; in test [5] it was greater than 8.3 µM. Also, the inhibition constant (Ki) in test [1] came out at 0.115 µM; in test [3] it was 0.031 µM; in test [4] it was 0.763 µM.

Consider `COc1ccc(-c2noc(COc3ccc(Cl)c(Oc4cc(Cl)cc(C#N)c4)c3)n2)cc1`, for which the Ki amounted to 0.03 µM in [1] and 0.0021 µM in [3]. Also, the IC95 in test [2] and in test [5] was greater than 8.3 µM in each case.

With `N#Cc1cc(Cl)cc(Oc2cc(OCc3nc(-c4ccccc4)no3)ccc2Cl)c1`, the Ki is 0.056 µM in test [1] and 0.015 µM in test [3].

For `N#Cc1cc(Cl)cc(Oc2cc(OCc3cc[nH]n3)ccc2Cl)c1`, the figures for the IC95 in test [6], in test [2] and in [5] were 8.3 µM, 8.3 µM and 0.922 µM, respectively. Moreover, the Ki in test [1] stood at 0.179 µM; in test [3] it was 0.039 µM; in [4] it was 0.14 µM.

Turning to `O=C1Nc2ccc(Cl)cc2[C@@](C#CC2CC2)(C(F)(F)F)O1` [EFAVIRENZ], the IC95 in [6] worked out at 0.232 µM; in test [2], 0.038 µM; in test [8] it was 0.008 µM; in test [9], 0.272 µM; in [5] it was 0.0043 µM.

For `N#Cc1cc(Cl)cc(Oc2cc(OCc3cc(-c4cc[n+]([O-])cc4)[nH]n3)ccc2Cl)c1`, the IC95 in test [6] was 0.307 µM; in [2], 0.307 µM; in test [8] it was 0.5 µM; in test [5] it was 0.044 µM. The Ki in [1] worked out at 0.021 µM; in test [3], 0.0053 µM; in [4] it was 0.046 µM.

For `N#Cc1cc(Cl)cc(Oc2cc(OCc3nc(-c4ccc(Cl)cc4)no3)ccc2Cl)c1`, the inhibition constant (Ki) in test [1] amounted to 0.13 µM; in test [3] it was 0.031 µM. Further, the IC95 in test [2] and in [5] was greater than 8.3 µM in each case.
